In ChEMBL document CHEMBL1201862, “PubChem BioAssay data set” (2004):
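Step 1: Grow cells in 96-well plates. Step 2: Expose to compound for 48 hours at 5 concentrations. Step 3: Interpolate endpoints linearly; if unreached, use highest concentration. GI50 is the concentration that inhibits growth by half.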 Active and inactive are the calls of the source. Rule as the data show it: active = GI50 up to about 1.1 µM and inactive = higher.

Legend:
Test in all cases: inhibition of tumour cell growth, NCI panel, 48 h
[1] = tested on: NCI-H460
[2] = tested on: 786-0
[3] = tested on: M14
[4] = tested on: OVCAR-5
[5] = tested on: UO-31
[6] = tested on: DU-145
[7] = tested on: UACC-257
[8] = tested on: KM12
[9] = tested on: SW-620
[10] = tested on: RPMI-8226
[11] = tested on: SK-MEL-28
[12] = tested on: SR
[13] = tested on: A498
[14] = tested on: SK-OV-3
[15] = tested on: NCI/ADR-RES
[16] = tested on: NCI-H226
[17] = tested on: HOP-62
[18] = tested on: SF-295
[19] = tested on: MDA-MB-435
[20] = tested on: SN12C

Row | SMILES | GI50 [1] | GI50 [2] | GI50 [3] | GI50 [4] | GI50 [5] | GI50 [6] | GI50 [7] | GI50 [8] | GI50 [9] | GI50 [10] | GI50 [11] | GI50 [12] | GI50 [13] | GI50 [14] | GI50 [15] | GI50 [16] | GI50 [17] | GI50 [18] | GI50 [19] | GI50 [20]
1 | O=c1cc(NNc2cccc(Cl)c2)[nH]c(=O)[nH]1 | > 100 µM (inactive) | 16.2 µM (inactive) | 16.7 µM (inactive) | 77.4 µM (inactive) | 18.8 µM (inactive) | 72.3 µM (inactive) | 44.3 µM (inactive) | 45.5 µM (inactive) | 18.1 µM (inactive) | 20.3 µM (inactive) | 95.9 µM (inactive) | 4.29 µM (inactive) | 42.2 µM (inactive) | > 100 µM (inactive) | > 100 µM (inactive) | > 100 µM (inactive) | – | – | – | –
2 | Cc1c(C2CCSc3ccccc3N2)sc2ccccc12 (stereo not given) | 90.2 µM (inactive) | > 100 µM (inactive) | > 100 µM (inactive) | – | 52.5 µM (inactive) | > 100 µM (inactive) | 99.8 µM (inactive) | 65.6 µM (inactive) | > 100 µM (inactive) | > 100 µM (inactive) | > 100 µM (inactive) | – | – | > 100 µM (inactive) | 46 µM (inactive) | > 100 µM (inactive) | > 100 µM (inactive) | > 100 µM (inactive) | 35.2 µM (inactive) | > 100 µM (inactive)
3 | O=C1c2ccccc2-c2ccc(/N=N/c3c(O)ccc4ccccc34)cc21 | – | > 100 µM (inactive) | > 100 µM (inactive) | > 100 µM (inactive) | > 100 µM (inactive) | > 100 µM (inactive) | > 100 µM (inactive) | > 100 µM (inactive) | > 100 µM (inactive) | > 100 µM (inactive) | > 100 µM (inactive) | – | > 100 µM (inactive) | > 100 µM (inactive) | > 100 µM (inactive) | > 100 µM (inactive) | > 100 µM (inactive) | > 100 µM (inactive) | 33.6 µM (inactive) | > 100 µM (inactive)
4 | OC1CSCCCSCCSCCCSC1 | > 100 µM (inactive) | > 100 µM (inactive) | > 100 µM (inactive) | > 100 µM (inactive) | > 100 µM (inactive) | > 100 µM (inactive) | > 100 µM (inactive) | – | > 100 µM (inactive) | 37.6 µM (inactive) | > 100 µM (inactive) | – | > 100 µM (inactive) | > 100 µM (inactive) | – | > 100 µM (inactive) | > 100 µM (inactive) | > 100 µM (inactive) | > 100 µM (inactive) | > 100 µM (inactive)
5 | O=C1CSC2=NC3=C(CSC/C3=C\c3ccc(Cl)cc3)C(c3ccc(Cl)cc3)N12 (stereo not given) | 28.5 µM (inactive) | > 10 µM (inactive) | 19.1 µM (inactive) | 61.2 µM (inactive) | 12.9 µM (inactive) | 28.4 µM (inactive) | 28.2 µM (inactive) | 8.04 µM (inactive) | 23.8 µM (inactive) | 17.5 µM (inactive) | 27 µM (inactive) | 14.9 µM (inactive) | – | 52.7 µM (inactive) | 24.4 µM (inactive) | – | – | 12.1 µM (inactive) | 25.1 µM (inactive) | 12.4 µM (inactive)
6 | CCOC(=O)C(NCc1cccc(C(F)(F)F)c1)(NC(=O)CC)C(F)(F)F (stereo not given) | – | > 100 µM (inactive) | > 100 µM (inactive) | > 100 µM (inactive) | 51.8 µM (inactive) | > 100 µM (inactive) | > 100 µM (inactive) | > 100 µM (inactive) | > 100 µM (inactive) | 26 µM (inactive) | > 100 µM (inactive) | > 100 µM (inactive) | – | > 100 µM (inactive) | > 100 µM (inactive) | > 100 µM (inactive) | > 100 µM (inactive) | > 100 µM (inactive) | > 100 µM (inactive) | > 100 µM (inactive)
7 | O=C(c1ccc2ccccc2c1)C1(I)S(=O)(=O)OCCOS1(=O)=O | > 100 µM (inactive) | > 100 µM (inactive) | > 100 µM (inactive) | > 100 µM (inactive) | > 100 µM (inactive) | > 100 µM (inactive) | – | > 100 µM (inactive) | – | > 100 µM (inactive) | > 100 µM (inactive) | > 100 µM (inactive) | – | – | > 100 µM (inactive) | – | > 100 µM (inactive) | 0.0102 µM (active) | > 100 µM (inactive) | > 100 µM (inactive)
8 | COc1cc([C@@H]2c3cc4c(cc3[C@H](OC3OC5COC(C(C)C)OC5C(O)C3O)C3COC(=O)[C@@H]32)OCO4)cc(OC)c1O (stereo not given in full) | 2.04 µM (inactive) | 10 µM (inactive) | 11.4 µM (inactive) | 12.4 µM (inactive) | 10.2 µM (inactive) | – | 8.87 µM (inactive) | 16.1 µM (inactive) | 6.53 µM (inactive) | 5.2 µM (inactive) | – | 1.47 µM (inactive) | 10.7 µM (inactive) | 17.3 µM (inactive) | 9.38 µM (inactive) | 5.26 µM (inactive) | 11.7 µM (inactive) | 8.22 µM (inactive) | 4.58 µM (inactive) | –
9 | O=c1c(-c2ccc3c(c2)OCO3)coc2c3c(ccc12)OCO3 | 17.2 µM (inactive) | 19.4 µM (inactive) | 30 µM (inactive) | 56.6 µM (inactive) | 43.7 µM (inactive) | 41.4 µM (inactive) | 53.1 µM (inactive) | 30.8 µM (inactive) | 39.7 µM (inactive) | > 100 µM (inactive) | 24.3 µM (inactive) | 40 µM (inactive) | 29 µM (inactive) | 18.1 µM (inactive) | – | – | 20.1 µM (inactive) | 18 µM (inactive) | > 100 µM (inactive) | 41.8 µM (inactive)
10 | Nc1cc2ncnn2c(SCC(=O)N/N=C/C(Br)=C\c2ccccc2)n1 | 17.3 µM (inactive) | 15.1 µM (inactive) | – | 22.1 µM (inactive) | 15.5 µM (inactive) | > 10 µM (inactive) | 9.62 µM (inactive) | 17.9 µM (inactive) | 16.4 µM (inactive) | 10.6 µM (inactive) | 16 µM (inactive) | 10.6 µM (inactive) | – | – | 25.5 µM (inactive) | 20 µM (inactive) | 33.6 µM (inactive) | 21.8 µM (inactive) | 15 µM (inactive) | 17.3 µM (inactive)
11 | CC(C)C1=C(O)C(=O)C2=C(C1=O)C(O)CC1C(C)(C)CCCC21C (stereo not given) | 2.88 µM (inactive) | 9.2 µM (inactive) | 3.92 µM (inactive) | 20.4 µM (inactive) | 5.09 µM (inactive) | 8.3 µM (inactive) | 11.3 µM (inactive) | 5.45 µM (inactive) | 3.52 µM (inactive) | 4.65 µM (inactive) | 13.3 µM (inactive) | 4 µM (inactive) | 14.3 µM (inactive) | 15 µM (inactive) | – | – | 7.35 µM (inactive) | 21.7 µM (inactive) | 3.4 µM (inactive) | 7.26 µM (inactive)
12 | NCCCC(N)(C(=O)O)C(F)F (stereo not given) [EFLORNITHINE] | 933 µM (inactive) | > 100 µM (inactive) | > 100 µM (inactive) | – | > 5000 µM (inactive) | – | > 5000 µM (inactive) | > 5000 µM (inactive) | > 5000 µM (inactive) | > 5000 µM (inactive) | > 5000 µM (inactive) | > 100 µM (inactive) | > 5000 µM (inactive) | > 5000 µM (inactive) | > 5000 µM (inactive) | > 5000 µM (inactive) | > 5000 µM (inactive) | 2270 µM (inactive) | – | > 1980 µM (inactive)
13 | C=C(C)CC1=C(C(=S)NCCO[Si](C)(C)C(C)(C)C)C(OCC)(OCC)C1=O | – | 16.6 µM (inactive) | 18.3 µM (inactive) | 14 µM (inactive) | 18.5 µM (inactive) | 23 µM (inactive) | 16.9 µM (inactive) | 16.7 µM (inactive) | 18.4 µM (inactive) | – | 15.5 µM (inactive) | – | 21.7 µM (inactive) | 18.2 µM (inactive) | 36.1 µM (inactive) | > 10 µM (inactive) | 17.9 µM (inactive) | 17.6 µM (inactive) | 16.9 µM (inactive) | 19.7 µM (inactive)
14 | O=CN/C=C/c1cc(O)ccc1O [ERBSTATIN] | 56.2 µM (inactive) | 14 µM (inactive) | 14.9 µM (inactive) | > 85.7 µM (inactive) | 29.7 µM (inactive) | 30.1 µM (inactive) | 13.5 µM (inactive) | > 89.3 µM (inactive) | 8.75 µM (inactive) | 26.3 µM (inactive) | 23.4 µM (inactive) | 4.39 µM (inactive) | 59.7 µM (inactive) | > 62.4 µM (inactive) | 18.1 µM (inactive) | 44 µM (inactive) | > 74.1 µM (inactive) | 58.1 µM (inactive) | – | 16.7 µM (inactive)
15 | Clc1ccccc1C(SCc1ccccc1)SCc1ccccc1 | > 100 µM (inactive) | > 100 µM (inactive) | > 100 µM (inactive) | > 100 µM (inactive) | > 100 µM (inactive) | > 100 µM (inactive) | > 100 µM (inactive) | 93.8 µM (inactive) | > 100 µM (inactive) | > 100 µM (inactive) | > 100 µM (inactive) | > 100 µM (inactive) | – | – | > 100 µM (inactive) | > 100 µM (inactive) | > 100 µM (inactive) | > 100 µM (inactive) | – | > 100 µM (inactive)
16 | c1ccc2c(c1)[Se]c1ccccc1[Se]2 | 38.3 µM (inactive) | > 100 µM (inactive) | > 100 µM (inactive) | > 100 µM (inactive) | 51.6 µM (inactive) | – | > 100 µM (inactive) | > 100 µM (inactive) | > 100 µM (inactive) | > 100 µM (inactive) | > 100 µM (inactive) | 85.3 µM (inactive) | > 100 µM (inactive) | > 100 µM (inactive) | – | 44.1 µM (inactive) | > 100 µM (inactive) | 25.6 µM (inactive) | – | > 100 µM (inactive)
